Reference: ChEMBL document CHEMBL6127092, “Comprehensive structural investigation of a potent and selective CXCR4 antagonist via crosslink modification” (Eur J Med Chem, 2024)
Active and inactive are the calls of the source. No cut-off for these calls is given here. Where a SMILES comes first, the peptide text is derived from it. Bridges are numbered along the chain shown (N, C = ends). Triazole bridges read from a SMILES are 1,4-linked. [ ]: non-standard residue; d: D form. 2Nal = N[C@@H](Cc1ccc2ccccc2c1)C(=O)O; Dap(N3) = [N-]=[N+]=NC[C@H](N)C(=O)O; Pra = C#CC[C@H](N)C(=O)O

Experiments:
[1] = Stability of compound in PBS at pH 7.4 assessed as parent compound remaining at 10 uM measured after 2 hrs in presence of GSH by RP-HPLC analysis; assay type: physicochemical; details: PBS with GSH, read-out: Stability
[2] = biological target: T1, C-X-C chemokine receptor type 4 (Homo sapiens, UniProt P61073); assay: Agonist activity at CXCR4 (unknown origin) transfected in human CCRF-CEM cells assessed as induction of internalization at 0.1 uM incubated for 45 mins by flow cytometric analysis; assay type: functional, cell-based
[3] = test system: CCRF-CEM; assay: Inhibition of CXCL12-mediated cell migration in human CCRF-CEM cells expressing CXCR4 incubated for 6 hrs by DAPI staining based fluorescence microscopic analysis; assay type: functional; details: dose 0.01-10 µM
[4] = biological target: Atypical chemokine receptor 3 (Homo sapiens) (UniProt P25106); assay: Binding affinity to CXCR7 (unknown origin) overexpressed in human MCF7 cells upto 10 uM preincubated for 45 mins followed by anti-CXCR7-APC antibody addition and measured after 30 mins by flow cytometric analysis; assay type: cell-based; details: time 75.0 min
[5] = biological target: T1, C-X-C chemokine receptor type 4; assay: Antagonist activity at GFP-tagged CXCR4 (unknown origin) transfected in CHO cells assessed as inhibition of CXCL12-induced cytoplasmic translocation at 0.1 to 1 uM incubated with compound for 45 mins with subsequent CXCL12 addition and measured at 30 to 90 mins by DAPI staining based fluorescence microscopic analysis; assay type: cell-based; details: filed as antagonist, dose 0.1-1 µM, time 30-90 min
[6] = Stability of compound in PBS at pH 7.4 assessed as parent compound remaining at 10 uM measured immediately in presence of GSH by RP-HPLC analysis; assay type: physicochemical; details: PBS with GSH, read-out: Stability
[7] = Stability of compound in PBS at pH 7.4 assessed as parent compound remaining at 10 uM measured after 1 hrs in presence of GSH by RP-HPLC analysis; assay type: physicochemical; details: PBS with GSH, read-out: Stability
[8] = biological target: T1, C-X-C chemokine receptor type 4; assay: Antagonist activity at CXCR4 (unknown origin) transfected in human CCRF-CEM cells assessed as inhibition of CXCL12-induced internalization at 0.1 to 1 uM preincubated for 45 mins followed by CXCL12 addition and measured after 30 mins by flow cytometric analysis; assay type: cell-based; details: filed as antagonist, dose 0.1-1 µM, time 75.0 min
[9] = biological target: T1, C-X-C chemokine receptor type 4; assay: Agonist activity at GFP-tagged CXCR4 (unknown origin) transfected in CHO cells assessed as induction of internalization at 0.1 to 1 uM incubated with compound for 45 mins and measured at 30 to 90 mins by DAPI staining based fluorescence microscopic analysis; assay type: functional, cell-based; details: dose 0.1-1 µM, time 30-90 min
[10] = biological target: T1, C-X-C chemokine receptor type 4; assay: Binding affinity to CXCR4 (unknown origin) overexpressed in human CCRF-CEM cells assessed as inhibition of ant-CXCR4 PE-antibody binding to receptor preincubated with compound for 45 mins followed by anti-CXCR4 PE-antibody addition and measured after 30 mins by flow cytometry based competitive binding assay; assay type: cell-based
[11] = biological target: T1, C-X-C chemokine receptor type 4; assay: Displacement of [125I]-CXCL12 from CXCR4 (unknown origin) overexpressed in human CCRF-CEM cells incubated for 1 hrs by gamma-counter; assay type: cell-based
[12] = Stability of compound in PBS at pH 7.4 assessed as parent compound remaining at 10 uM measured after 8 hrs in presence of GSH by RP-HPLC analysis; assay type: physicochemical; details: PBS with GSH, read-out: Stability
[13] = test system: CCRF-CEM; assay: Inhibition of CXCL12-mediated cell migration in human CCRF-CEM cells expressing CXCR4 at 0.01 uM incubated for 6 hrs by DAPI staining based fluorescence microscopic analysis; assay type: functional
[14] = Stability of compound in PBS at pH 7.4 assessed as parent compound remaining at 10 uM measured after 4 hrs in presence of GSH by RP-HPLC analysis; assay type: physicochemical; details: PBS with GSH, read-out: Stability
[15] = biological target: T1, C-X-C chemokine receptor type 4; assay: Agonist activity at CXCR4 (unknown origin); assay type: functional
[16] = test system: CCRF-CEM; assay: Inhibition of CXCL12-mediated cell migration in human CCRF-CEM cells expressing CXCR4 at 0.01 to 10 uM incubated for 6 hrs by DAPI staining based fluorescence microscopic analysis; assay type: functional; details: dose 0.01-10 µM

T1 sequence (P61073 whole entry): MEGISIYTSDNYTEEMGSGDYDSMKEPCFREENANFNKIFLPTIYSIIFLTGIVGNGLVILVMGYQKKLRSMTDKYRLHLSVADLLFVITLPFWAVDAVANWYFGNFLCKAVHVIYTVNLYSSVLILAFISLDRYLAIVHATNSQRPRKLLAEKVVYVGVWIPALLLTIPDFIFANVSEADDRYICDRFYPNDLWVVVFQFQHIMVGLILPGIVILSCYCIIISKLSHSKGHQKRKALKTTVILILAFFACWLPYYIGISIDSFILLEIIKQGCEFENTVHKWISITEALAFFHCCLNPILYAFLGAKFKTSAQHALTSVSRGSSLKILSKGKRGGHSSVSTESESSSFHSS
Atypical chemokine receptor 3 (Homo sapiens), sequence (P25106 whole entry): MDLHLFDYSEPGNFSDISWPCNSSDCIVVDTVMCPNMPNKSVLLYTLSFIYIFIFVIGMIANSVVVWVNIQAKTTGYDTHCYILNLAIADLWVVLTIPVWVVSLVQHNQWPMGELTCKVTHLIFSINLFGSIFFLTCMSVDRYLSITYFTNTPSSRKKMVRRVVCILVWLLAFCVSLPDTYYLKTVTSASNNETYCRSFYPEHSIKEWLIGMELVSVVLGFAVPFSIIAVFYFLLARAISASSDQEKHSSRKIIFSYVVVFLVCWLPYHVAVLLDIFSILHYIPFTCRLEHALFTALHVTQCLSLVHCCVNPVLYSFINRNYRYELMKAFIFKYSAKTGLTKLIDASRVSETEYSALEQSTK

## CC(=O)N[C@@H](CCCNC(=N)N)C(=O)N[C@@H](C)C(=O)N[C@H]1CNC(=O)CC[C@@H](C(=O)O)NC(=O)[C@H](Cc2c[nH]cn2)NC(=O)[C@H](Cc2ccc3ccccc3c2)NC(=O)[C@H](CCCNC(=N)N)NC1=O
[1]
  remaining at 2 h, 10 µM: 100%
[2]
  Activity: inactive
[3]
  inhibition: Dose-Dependent Effect
[4]
  Activity: inactive
[5]
  Activity: Active
[6]
  remaining at 0 h, 10 µM: 100%
[7]
  remaining at 1 h, 10 µM: 100%
[8]
  Activity: Active
[9]
  Activity: inactive
[10]
  IC50: 7.8 nM
[11]
  IC50: 3.9 nM
[12]
  remaining at 8 h, 10 µM: 100%
[13]
  inhibition: Active
[14]
  remaining at 4 h, 10 µM: 100%

## CC(=O)N[C@@H](CCCNC(=N)N)C(=O)N[C@@H](C)C(=O)N[C@@H]1CSSC(C)(C)[C@@H](C(=O)O)NC(=O)[C@H](Cc2cnc[nH]2)NC(=O)[C@H](Cc2ccc3ccccc3c2)NC(=O)[C@H](CCCNC(=N)N)NC1=O
[1]
  remaining at 2 h, 10 µM: 79%
[6]
  remaining at 0 h, 10 µM: 100%
[7]
  remaining at 1 h, 10 µM: 88%
[10]
  IC50: 1.5 nM
[11]
  IC50: 15.2 nM
[12]
  remaining at 8 h, 10 µM: 52%
[14]
  remaining at 4 h, 10 µM: 65%

## CC(=O)N[C@@H](CCCNC(=N)N)C(=O)N[C@@H](C)C(=O)N[C@@H]1CC(=O)NC[C@@H](C(=O)O)NC(=O)[C@H](Cc2c[nH]cn2)NC(=O)[C@H](Cc2ccc3ccccc3c2)NC(=O)[C@H](CCCNC(=N)N)NC1=O
[10]
  IC50: 3150 nM

## CC(=O)N[C@@H](CCCNC(=N)N)C(=O)N[C@@H](C)C(=O)N[C@@H]1CCC(=O)NC[C@@H](C(=O)O)NC(=O)[C@H](Cc2c[nH]cn2)NC(=O)[C@H](Cc2ccc3ccccc3c2)NC(=O)[C@H](CCCNC(=N)N)NC1=O
[10]
  IC50: 89 nM

## CC(=O)N[C@@H](CCCNC(=N)N)C(=O)N[C@@H](C)C(=O)N[C@H]1CCC(=O)NCCC[C@@H](C(=O)O)NC(=O)[C@H](Cc2c[nH]cn2)NC(=O)[C@H](Cc2ccc3ccccc3c2)NC(=O)[C@H](CCCNC(=N)N)NC1=O
[10]
  IC50: > 10 nM

## CC(=O)N[C@@H](CCCNC(=N)N)C(=O)N[C@@H](C)C(=O)N[C@H]1Cc2cnnn2CC[C@@H](C(=O)O)NC(=O)[C@H](Cc2c[nH]cn2)NC(=O)[C@H](Cc2ccc3ccccc3c2)NC(=O)[C@H](CCCNC(=N)N)NC1=O
[15]
  IC50: 31 nM

## CC(=O)N[C@@H](CCCNC(=N)N)C(=O)N[C@@H](C)C(=O)N[C@@H]1CC(=O)NCCCC[C@@H](C(=O)O)NC(=O)[C@H](Cc2c[nH]cn2)NC(=O)[C@H](Cc2ccc3ccccc3c2)NC(=O)[C@H](CCCNC(=N)N)NC1=O
[10]
  IC50: 2570 nM

## CC(=O)N[C@@H](CCCNC(=N)N)C(=O)N[C@@H](C)C(=O)N[C@H]1CCC(=O)NC[C@@H](C(=O)O)NC(=O)[C@H](Cc2c[nH]cn2)NC(=O)[C@H](Cc2ccc3ccccc3c2)NC(=O)[C@H](CCCNC(=N)N)NC1=O
[10]
  IC50: 510 nM

## CC(=O)N[C@@H](CCCNC(=N)N)C(=O)N[C@@H](C)C(=O)N[C@H]1CC(=O)NCC[C@@H](C(=O)O)NC(=O)[C@H](Cc2c[nH]cn2)NC(=O)[C@H](Cc2ccc3ccccc3c2)NC(=O)[C@H](CCCNC(=N)N)NC1=O
[10]
  IC50: 756 nM

## CC(=O)N[C@@H](CCCNC(=N)N)C(=O)N[C@@H](C)C(=O)N[C@H]1CSSC(C)(C)[C@H](C(=O)O)NC(=O)[C@H](Cc2c[nH]cn2)NC(=O)[C@H](Cc2ccc3ccccc3c2)NC(=O)[C@H](CCCNC(=N)N)NC1=O
[2]
  Activity: inactive
[4]
  Activity: inactive
[5]
  Activity: Active
[16]
  inhibition: Active
[8]
  Activity: Active
[9]
  Activity: inactive

## CC(=O)N[C@@H](CCCNC(=N)N)C(=O)N[C@@H](C)C(=O)N[C@H]1Cn2cc(nn2)C[C@@H](C(=O)O)NC(=O)[C@H](Cc2c[nH]cn2)NC(=O)[C@H](Cc2ccc3ccccc3c2)NC(=O)[C@H](CCCNC(=N)N)NC1=O (Ac-RA[Dap(N3)]R[2Nal]H[Pra]-OH; triazole 3-7)
[11]
  IC50: 36 nM

## CC(=O)N[C@@H](CCCNC(=N)N)C(=O)N[C@@H](C)C(=O)N[C@H]1CCC(=O)NCC[C@@H](C(=O)O)NC(=O)[C@H](Cc2c[nH]cn2)NC(=O)[C@H](Cc2ccc3ccccc3c2)NC(=O)[C@H](CCCNC(=N)N)NC1=O
[10]
  IC50: > 10 nM

## CC(=O)N[C@@H](CCCNC(=N)N)C(=O)N[C@@H](C)C(=O)N[C@@H]1CNC(=O)C[C@@H](C(=O)O)NC(=O)[C@H](Cc2c[nH]cn2)NC(=O)[C@H](Cc2ccc3ccccc3c2)NC(=O)[C@H](CCCNC(=N)N)NC1=O
[10]
  IC50: 3600 nM

## CC(=O)N[C@@H](CCCNC(=N)N)C(=O)N[C@@H](C)C(=O)N[C@H]1CC(=O)NCCCC[C@@H](C(=O)O)NC(=O)[C@H](Cc2c[nH]cn2)NC(=O)[C@H](Cc2ccc3ccccc3c2)NC(=O)[C@H](CCCNC(=N)N)NC1=O
[10]
  IC50: > 10 nM

## CC(=O)N[C@@H](CCCNC(=N)N)C(=O)N[C@@H](C)C(=O)N[C@@H]1CCC(=O)NCC[C@@H](C(=O)O)NC(=O)[C@H](Cc2c[nH]cn2)NC(=O)[C@H](Cc2ccc3ccccc3c2)NC(=O)[C@H](CCCNC(=N)N)NC1=O
[10]
  IC50: 238 nM

## CC(=O)N[C@@H](CCCNC(=N)N)C(=O)N[C@@H](C)C(=O)N[C@H]1CCC(=O)NCCCC[C@@H](C(=O)O)NC(=O)[C@H](Cc2c[nH]cn2)NC(=O)[C@H](Cc2ccc3ccccc3c2)NC(=O)[C@H](CCCNC(=N)N)NC1=O
[10]
  IC50: > 10 nM

## CC(=O)N[C@@H](CCCNC(=N)N)C(=O)N[C@@H](C)C(=O)N[C@@H]1CCC(=O)NCCC[C@@H](C(=O)O)NC(=O)[C@H](Cc2c[nH]cn2)NC(=O)[C@H](Cc2ccc3ccccc3c2)NC(=O)[C@H](CCCNC(=N)N)NC1=O
[10]
  IC50: > 10 nM

## CC(=O)N[C@@H](CCCNC(=N)N)C(=O)N[C@@H](C)C(=O)N[C@@H]1CC(=O)NCC[C@@H](C(=O)O)NC(=O)[C@H](Cc2c[nH]cn2)NC(=O)[C@H](Cc2ccc3ccccc3c2)NC(=O)[C@H](CCCNC(=N)N)NC1=O
[10]
  IC50: 710 nM

## CC(=O)N[C@@H](CCCNC(=N)N)C(=O)N[C@@H](C)C(=O)N[C@@H]1CNC(=O)CC[C@@H](C(=O)O)NC(=O)[C@H](Cc2c[nH]cn2)NC(=O)[C@H](Cc2ccc3ccccc3c2)NC(=O)[C@H](CCCNC(=N)N)NC1=O
[10]
  IC50: 810 nM

## CC(=O)N[C@@H](CCCNC(=N)N)C(=O)N[C@@H](C)C(=O)N[C@@H]1CCC(=O)NCCCC[C@@H](C(=O)O)NC(=O)[C@H](Cc2c[nH]cn2)NC(=O)[C@H](Cc2ccc3ccccc3c2)NC(=O)[C@H](CCCNC(=N)N)NC1=O
[10]
  IC50: > 10 nM

## CC(=O)N[C@@H](CCCNC(=N)N)C(=O)N[C@@H](C)C(=O)N[C@H]1CC(=O)NCCC[C@@H](C(=O)O)NC(=O)[C@H](Cc2c[nH]cn2)NC(=O)[C@H](Cc2ccc3ccccc3c2)NC(=O)[C@H](CCCNC(=N)N)NC1=O
[10]
  IC50: > 10 nM

## CC(=O)N[C@@H](CCCNC(=N)N)C(=O)N[C@@H](C)C(=O)N[C@H]1CC(=O)NC[C@@H](C(=O)O)NC(=O)[C@H](Cc2c[nH]cn2)NC(=O)[C@H](Cc2ccc3ccccc3c2)NC(=O)[C@H](CCCNC(=N)N)NC1=O
[10]
  IC50: > 10 nM

## CC(=O)N[C@@H](CCCNC(=N)N)C(=O)N[C@@H](C)C(=O)N[C@@H]1CC(=O)NCCC[C@@H](C(=O)O)NC(=O)[C@H](Cc2c[nH]cn2)NC(=O)[C@H](Cc2ccc3ccccc3c2)NC(=O)[C@H](CCCNC(=N)N)NC1=O
[10]
  IC50: 2020 nM

## CC(=O)N[C@@H](CCCNC(=N)N)C(=O)N[C@@H](C)C(=O)N[C@H]1CNC(=O)C[C@@H](C(=O)O)NC(=O)[C@H](Cc2c[nH]cn2)NC(=O)[C@H](Cc2ccc3ccccc3c2)NC(=O)[C@H](CCCNC(=N)N)NC1=O
[10]
  IC50: 143 nM
